Like-named read-outs stand apart in the source and are kept apart here. Some results are limits rather than exact numbers.

In test [1] the test system is H 460. As to the kind of experiment: NCI in vitro 60 human tumor cell line assay. The class given is cell-based. Conditions: for IC (TGI): Homo sapiens, read-out: Total Growth Inhibition (TGI).
Method: (§1) Each test compound was screened against a battery of 60 human cell lines obtained from eight organs. In a typical procedure, the cell suspensions that were diluted according to the particular cell type and the expected target cell density (5000-40,000 cells per well based on cell growth characteristics) were added into 96-well microtiter plates. Inoculates were allowed a preincubation period of 24h at 37°C. for stabilization. Dilutions at twice the intended test concentrations were added at time zero in 100-µl aliquots to microtiter plate wells. Usually test compounds were evaluated at five 10-fold dilutions. The highest well concentration used in the test is 10^-4M. The cells are then incubated in the presence of drug (the test compound) for further 48h in 5% CO2 atmosphere and 100% humidity. At the end of this time, the adherent cells are fixed to the plate by means of trichloroacetic acid, and after a number of washes, the cell layer is treated with the protein stain Sulforhodamine B. The optical density which is proportional to protein mass, is then read by automated spectrophotometric plate readers at a wavelength of 515 nm. Readings are transferred to a microcomputer and final reports are generated using especially developed software.
Test [2] deals with NCI's 60 human tumor cell line assay. As to the kind of experiment: cells. The test is classed as cell-based. Conditions: 60 cell, 48 h, read-out: IC50 (mean GI50 against NCI's 60 human tumor cell line assay).
Method: as §1
The test system of test [3] is H 23. In words: NCI in vitro 60 human tumor cell line assay. The test is classed as cell-based. Conditions: read-out: Total Growth Inhibition (TGI).
Method: as §1
Test [4] can be described thus: NCI in vitro 60 human tumor cell line assay. The settings on record: read-out: Total Growth Inhibition (TGI). The test is classed as cell-based.
Method: as §1
Test [5] deals with KM 12. In words: NCI in vitro 60 human tumor cell line assay. The class given is cell-based. Conditions: read-out: Total Growth Inhibition (TGI).
Method: as §1
Test [6] has as its system HOP 62. As to the kind of experiment: NCI in vitro 60 human tumor cell line assay. The class given is cell-based. Conditions: read-out: Total Growth Inhibition (TGI).
The subject of test [7] is HCC 2998. As to the kind of experiment: NCI in vitro 60 human tumor cell line assay. The class given is cell-based. Conditions: for IC (TGI): Homo sapiens, read-out: Total Growth Inhibition (TGI).
Method: as §1
Test [8] relates to COLO 205. As to the kind of experiment: NCI in vitro 60 human tumor cell line assay. The class given is cell-based. The settings on record: read-out: Total Growth Inhibition (TGI).
Method: as §1
Test [9] deals with H 226. As to the kind of experiment: NCI in vitro 60 human tumor cell line assay. The test is classed as cell-based. The settings on record: read-out: Total Growth Inhibition (TGI).
Method: as §1
In test [10] the test system is HT 29. In words: NCI in vitro 60 human tumor cell line assay. The class given is cell-based.
Method: as §1
Test [11] relates to MCF7 / ADR / RES. As to the kind of experiment: NCI in vitro 60 human tumor cell line assay. The test is classed as cell-based. Conditions: read-out: Total Growth Inhibition (TGI).
Method: as §1
The test system of test [12] is MCF 7. In words: NCI in vitro 60 human tumor cell line assay. Conditions: read-out: Total Growth Inhibition (TGI). The test is classed as cell-based.
Method: as §1
Test [13] relates to H 322M. As to the kind of experiment: NCI in vitro 60 human tumor cell line assay. The class given is cell-based. The settings on record: NCI-H322M, H 322M, NSLC, 48h, read-out: Total Growth Inhibition (TGI).
Method: as §1
In test [14] the test system is 786-O. As to the kind of experiment: NCI in vitro 60 human tumor cell line assay. The test is classed as cell-based. The settings on record: 786-0, 786-O, RENAL CANCER, 48h, read-out: Total Growth Inhibition (TGI).
Method: (§2) Each test compound was screened against a battery of 60 human cell lines obtained from eight organs. In a typical procedure, the cell suspensions that were diluted according to the particular cell type and the expected target cell density (5000-40,000 cells per well based on cell growth characteristics) were added into 96-well microtiter plates. Inoculates were allowed a preincubation period of 24h at 37°C. for stabilization. Dilutions at twice the intended test concentrations were added at time zero in 100-µl aliquots to microtiter plate wells. Usually test compounds were evaluated at five 10-fold dilutions. The highest well concentration used in the test is 10^-4M. The cells are then incubated in the presence of drug (the test compound) for further 48h in 5% CO2 atmosphere and 100% humidity. At the end of this time, the adherent cells are fixed to the plate by means of trichloroacetic acid, and after a number of washes, the cell layer is treated with the protein stain Sulforhodamine B. The optical density which is proportional to protein mass, is then read by automated spectrophotometric plate readers at a wavelength of 515 nm.
In test [15] the test system is U 251. As to the kind of experiment: NCI in vitro 60 human tumor cell line assay. The settings on record: U 251, CNS, 48h, read-out: Total Growth Inhibition (TGI). The test is classed as cell-based.
Method: as §1
Test [16] relates to MCF 7/ ADR. As to the kind of experiment: NCI in vitro 60 human tumor cell line assay. The class given is cell-based. The settings on record: MCF 7/ ADR, BREAST, 48h.
Method: as §1
Test [17] relates to H 522. As to the kind of experiment: NCI in vitro 60 human tumor cell line assay. The class given is cell-based. Conditions: NCI-H522, H 522, NSLC, 48h, read-out: Total Growth Inhibition (TGI).
Method: as §1
Test [18] deals with T 47D. As to the kind of experiment: NCI in vitro 60 human tumor cell line assay. The class given is cell-based. Conditions: T47D, T 47D, BREAST, 48h, read-out: Total Growth Inhibition (TGI).
Method: as §1
In test [19] the test system is SF 295. As to the kind of experiment: NCI in vitro 60 human tumor cell line assay. The class given is cell-based. The settings on record: SF 295, CNS, 48h, read-out: Total Growth Inhibition (TGI).
Method: as §1
Test [20] has as its system EKVX. In words: NCI in vitro 60 human tumor cell line assay. The test is classed as cell-based. Conditions: NSLC, 48h, read-out: Total Growth Inhibition (TGI).
Method: as §1
The subject of test [21] is SK OV3. As to the kind of experiment: NCI in vitro 60 human tumor cell line assay. Conditions: SK-OV-3, SK OV3, OVARIAN, 48h, read-out: Total Growth Inhibition (TGI). The test is classed as cell-based.
Method: as §2
Test [22] concerns MDA-MB-435. In words: NCI in vitro 60 human tumor cell line assay. The settings on record: MDA-MB-435, BREAST, 48h, read-out: Total Growth Inhibition (TGI). The test is classed as cell-based.
Test [23] relates to SN12C. As to the kind of experiment: NCI in vitro 60 human tumor cell line assay. The test is classed as cell-based. The settings on record: RENAL CANCER, 48h, read-out: Total Growth Inhibition (TGI).
Method: as §1
The subject of test [24] is UO 31. As to the kind of experiment: NCI in vitro 60 human tumor cell line assay. The class given is cell-based. Conditions: UO 31, RENAL, 48h, read-out: Total Growth Inhibition (TGI).
Method: as §1
In test [25] the test system is SF 268. As to the kind of experiment: NCI in vitro 60 human tumor cell line assay. The class given is cell-based. Conditions: SF-268, 48 h, read-out: Total Growth Inhibition (TGI).
Method: as §2
Test [26] concerns A 498. In words: NCI in vitro 60 human tumor cell line assay. The test is classed as cell-based. The settings on record: A498, A 498, RENAL CANCER, 48h, read-out: Total Growth Inhibition (TGI).
Method: as §1
For test [27], the system named is BT 549. As to the kind of experiment: NCI in vitro 60 human tumor cell line assay. The class given is cell-based. Conditions: BT 549, BREAST, 48h, read-out: Total Growth Inhibition (TGI).
Method: as §1
Test [28] relates to HOP 92. In words: NCI in vitro 60 human tumor cell line assay. The test is classed as cell-based. Conditions: HOP 92, NSLC, 48h, read-out: Total Growth Inhibition (TGI).
For test [29], the system named is RXF 393. In words: NCI in vitro 60 human tumor cell line assay. The settings on record: RXF 393, RENAL CANCER, 48h, read-out: Total Growth Inhibition (TGI). The test is classed as cell-based.
Method: as §1
Test [30] has as its system HCT 15. In words: NCI in vitro 60 human tumor cell line assay. The settings on record: HCT 15, COLON CANCER, 48h, read-out: Total Growth Inhibition (TGI). The test is classed as cell-based.
Method: as §1
In test [31] the test system is HCT 116. In words: NCI in vitro 60 human tumor cell line assay. The class given is cell-based. The settings on record: HCT 116, COLON CANCER, 48h, read-out: Total Growth Inhibition (TGI).
Test [32] relates to MOLT 4. As to the kind of experiment: NCI in vitro 60 human tumor cell line assay. The test is classed as cell-based. Conditions: MOLT 4, […], 48h, read-out: Total Growth Inhibition (TGI).
Method: as §1
Test [33] concerns CAKI. As to the kind of experiment: NCI in vitro 60 human tumor cell line assay. The class given is cell-based. The settings on record: CAKI, RENAL CANCER, 48h, read-out: Total Growth Inhibition (TGI).
Method: as §1
The test system of test [34] is ACHN. As to the kind of experiment: NCI in vitro 60 human tumor cell line assay. The test is classed as cell-based. Conditions: RENAL CANCER, 48h, read-out: Total Growth Inhibition (TGI).
Method: as §1
Test [35] deals with OVCAR 8. In words: NCI in vitro 60 human tumor cell line assay. Conditions: OVCAR 8, OVARIAN, 48h, read-out: Total Growth Inhibition (TGI). The class given is cell-based.
Method: as §2
The conditions of test [36]: compared with 20(RS)-camptothecin of the formula 8; cited from earlier work.
The target in test [37] is topoisomerase I (Homo sapiens, UniProt P11387). Conditions: result in words; cited from earlier work.
topoisomerase I, sequence (P11387 whole entry): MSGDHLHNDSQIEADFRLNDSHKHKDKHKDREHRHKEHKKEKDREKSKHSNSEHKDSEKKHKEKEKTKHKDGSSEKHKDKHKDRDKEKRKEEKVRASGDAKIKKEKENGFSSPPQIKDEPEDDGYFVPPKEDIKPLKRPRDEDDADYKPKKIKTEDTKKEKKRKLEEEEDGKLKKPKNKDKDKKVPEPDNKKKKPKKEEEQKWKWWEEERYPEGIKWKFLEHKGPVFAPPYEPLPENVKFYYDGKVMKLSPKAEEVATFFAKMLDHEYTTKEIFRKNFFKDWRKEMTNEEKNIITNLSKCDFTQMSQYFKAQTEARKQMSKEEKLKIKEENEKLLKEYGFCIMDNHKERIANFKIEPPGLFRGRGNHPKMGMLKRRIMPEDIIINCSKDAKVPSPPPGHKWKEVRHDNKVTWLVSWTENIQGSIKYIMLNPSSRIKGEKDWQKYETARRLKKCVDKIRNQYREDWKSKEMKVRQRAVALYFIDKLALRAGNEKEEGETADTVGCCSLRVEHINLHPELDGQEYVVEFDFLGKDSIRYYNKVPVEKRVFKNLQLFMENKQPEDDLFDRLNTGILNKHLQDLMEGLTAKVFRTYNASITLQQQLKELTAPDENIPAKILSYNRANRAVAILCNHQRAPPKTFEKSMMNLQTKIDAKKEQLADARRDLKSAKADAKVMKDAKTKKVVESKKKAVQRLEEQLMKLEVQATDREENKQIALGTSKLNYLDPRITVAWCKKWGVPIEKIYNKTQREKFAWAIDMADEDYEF

As for `CC[C@@]1(O)C(=O)OCc2c1cc1n(c2=O)C(OCCOC)c2cc3ccccc3nc2-1` (stereo partly shown) [Example 43, 5-(2'-methoxyethoxy)camptothecin], the IC (TGI) in test [1] (NCI-H460, 48 h) was determined as 14.2 µM; in test [3] (NCI-H23, 48 h), 2.52 µM; in test [4] (48 h), 23.6 µM; in test [5] (KM12, 48 h) it was 41.9 µM; in test [6] (HOP-62, 48 h) it was 3.92 µM; in [7] (HCC 2998, 48 h), 23.2 µM. In addition, the IC (TGI) in [8] (COLO 205, 48 h) is 37.3 µM; in test [9] (NCI-H226, 48 h), 6.89 µM; in [10] (Homo sapiens, HT-29, 48 h, read-out: Total Growth Inhibition (TGI)), 18.9 µM; in test [11] (48 h) it was 9.3 µM; in test [12] (MCF7, 48 h) it was 17.8 µM. The mean GI50 in [2] worked out at 2230 nM.
Take `CC[C@@]1(O)C(=O)OCc2c1cc1n(c2=O)Cc2cc3c(CN(C)C)c(O)ccc3nc2-1` [TOPOTECAN, topotecan, reference compound]: the IC (TGI) came out at 16.9 µM in [13]; 1.2 µM in test [1] (NCI-H460, H 460, NSLC, 48h); 0.12 µM in test [14]; 2.81 µM in test [15]; 1.5 µM in [16] (Homo sapiens, NCI/ADR-RES, read-out: Total Growth Inhibition (TGI)); 4.16 µM in [17]. Moreover, the IC (TGI) is 1.8 µM in test [18]; 2.18 µM in [19]; 100 µM in test [20]; 5.12 µM in [21]; 2.5 µM in [22]; 1.58 µM in test [23]. The IC (TGI) in test [3] (NCI-H23, H 23, NSLC, 48h) is 0.87 µM; in test [24], 2.51 µM; in test [4] (HCT 166, COLON CANCER, 48h), 2.51 µM; in test [25], 56 µM; in test [26], 1.69 µM; in test [27] it was above 100 µM. Further, the IC (TGI) in test [5] (KM12, KM 12, COLON CANCER, 48h) stood at 6.45 µM; in test [28], 7.9 µM; in test [29], 1.41 µM; in [30], 44.6 µM; in [6] (HOP 62, NSLC, 48h) it was 0.04 µM; in test [7] (HCC 2998, COLON CANCER, 48h), 15.8 µM. For the same molecule, the IC (TGI) in [31] was 2.51 µM; in [8] (COLO 205, COLON CANCER, 48h) it was 7.94 µM; in test [9] (NCI-H226, H 226, NSLC, 48h), 11 µM; in [10] (Homo sapiens, HT-29, 48 h; read-out: Total Growth Inhibition (TGI)) it was above 100 µM; in test [32] it was 1.2 µM; in test [33] it was 0.51 µM. Moreover, the IC (TGI) was determined as 0.28 µM in [34]; 1.5 µM in test [11] (MCF7 / ADR / RES, BREAST CANCER, 48h); 18.2 µM in test [35]; 100 µM in test [12] (MCF7, MCF 7, BREAST, 48h). Further, the “Total Growth Inhibition (TGI)” value was found to be 1.20 μm in test [1] (H 460, NSLC, 48h); 1.5 μm in test [16]; 15.80 μm in test [7] (HCC 2998, COLON CANCER, 48h); 100 μm in [10].
For the molecule `CCc1c2c(nc3ccc(OC)cc13)-c1cc3c(c(=O)n1C2)COC(=O)[C@]3(N)CC` [formula 7, 7-ethyl-10-methoxycamptothecin derivative], the “in vivo antitumor activity” value in test [36] is on record as “increased in vivo antitumor activity”.
On to `C=C1C(=O)OCc2c1cc1n(c2=O)Cc2c-1nc1ccc(O)cc1c2CC` [formula 9, 18-noranhydrocamptothecin analogue], for which the “inhibition of topoisomerase I activity” value in [37] is reported as “potent camptothecin like inhibition of topoisomerase I activity”.

The values are drawn from patent publication EP0847397B1, “WATER-SOLUBLE C-RING ANALOGUES OF 20 (S)-CAMPTOTHECIN” (DR. REDDY'S RESEARCH FOUNDATION, priority 1996, dated 1997).
